EC50 and Ki data for 16 molecules are collected here from PubChem BioAssay AID2036 (NMMLSC, 2009).

Active and inactive are the calls of the source. The rule behind the calls is not given here.

The target of this test is Ras-related protein Rab7, wildtype (dog). The test is described as follows: Rab7 GTP binding inhibitors, further analogs, SAR follow-up, biochemical, additional analogs, wildtype, multiplex bead flow cytometry (AID 2036). The conditions noted are these: for Ki: measured here: Ki from EC50.

For the molecule `O=Nc1c(-c2c(O)[nH]c3c(Br)cccc23)[nH]c2ccccc12`, the EC50 result was “inactive”. Consider `COc1cc(-c2c(C#N)c(N)n(S(=O)(=O)c3c(C(C)C)cc(C(C)C)cc3C(C)C)c2C(=O)c2ccccc2)cc(OC)c1OC`, for which the Ki is 2170 nM.

In the case of `O=Nc1c(-c2c(O)[nH]c3c(F)cccc23)[nH]c2ccccc12`, the EC50 entry is “inactive”. Turning to `O=Nc1c(-c2c(O)[nH]c3ccc(Br)cc23)[nH]c2ccccc12`, the EC50 entry was “inactive”. As to `O=C1N=c2ccccc2=C1c1[nH]c(=O)[nH]c1O`, the EC50 result was “inactive”. `CC(C)Cc1ccc([C@H](C)C(=O)O)cc1`: the Ki was determined as 310 nM. As for `O=C1C(c2c(O)[nH]c3ccc(Br)cc23)=Nc2ccccc21`, the EC50 result is “inactive”. As to `O=Nc1c(-c2c(O)[nH]c3c(Cl)cccc23)[nH]c2ccccc12`, the EC50 entry was “inactive”. Same read-out and setting: to `O=C1C(c2c(O)[nH]c3c(Cl)cccc23)=Nc2ccccc21` belongs “inactive”. On to `O=C1C(c2c(O)[nH]c3c(Br)cccc23)=Nc2ccccc21`, for which the EC50 entry was “inactive”. Consider `O=C1C(c2c(O)[nH]c3c(F)cccc23)=Nc2ccccc21`, for which the EC50 entry was “inactive” and the inhibition constant Ki was 1560 nM.

With `O=C1C(c2c(O)[nH]c3ccccc23)=Nc2ccccc21`, the EC50 entry is “inactive”. For the molecule `CSc1ccc(/C=C2/C(C)=C(CC(=O)O)c3cc(F)ccc32)cc1`, the Ki came to 2700 nM.

In turn, `COc1ccc(S(=O)(=O)n2c(N)c(C#N)c(-c3cncc(Br)c3)c2C(=O)c2ccccc2)cc1` had a Ki of 540 nM. For `O=Nc1c(-c2c(O)[nH]c3ccccc23)[nH]c2ccccc12`, the EC50 entry is “inactive”. In the case of `O=C1N=c2ccccc2=C1c1[nH]c(=S)[nH]c1O`, the EC50 entry is “inactive” and the Ki came out at 870 nM.
